Assays:
[1] = post-marketing experience (post-approval use): adverse reactions in treated patients; type: in vivo; details: for adverse reactions associated with treatment, identified during post-approval use: reported voluntarily from a population of uncertain size, frequency and causality not established
From the text: This invention comprises the discovery through post-marketing experience that treatment of patients with iloperidone has been associated with specific adverse reactions.
Without limiting this invention to a particular mechanism of action, the enumerated reactions may be hypersensitivity reactions. An aspect of this invention therefore comprises amending the contraindications section and/or the adverse events section of the iloperidone package insert, i.e., prescribing information, to read more or less as follows: • 4 CONTRAINDICATIONS • FANAPT is contraindicated in individuals with a known hypersensitivity reaction to the product. […] Because these reactions were reported voluntarily from a population of uncertain size, it is not possible to reliably estimate their frequency or establish a causal relationship to drug exposure.

[2] = prescribing information approved as of the priority date; cited from earlier work

SMILES: COc1cc(C(C)=O)ccc1OCCCN1CCC(c2noc3cc(F)ccc23)CC1 [iloperidone]
- relative frequency among the enumerated reactions [1]: rash was the most common followed by swollen tongue and swollen lip
- adverse reactions associated with treatment, identified during post-approval use [1]: anaphylaxis, angioedema, throat tightness, oropharyngeal swelling, swelling of the face, lip, mouth, and tongue; urticaria, rash, and pruritus
- adverse reactions associated with treatment, identified during post-approval use ([1]; listed as FANAPT): retrograde ejaculation and hypersensitivity reactions (including anaphylaxis, angioedema, throat tightness, oropharyngeal swelling, swelling of the face, lip, mouth, and/or tongue; urticaria, rash, and pruritus)
- known hypersensitivity reactions to the product (Contraindications section) [2]: pruritus and urticaria

— US11723903B2, “Treatment of schizophrenia” (Vanda Pharmaceuticals Inc., priority 2015, dated 2023)
